Patent US7247617B2, “Sixteen-member macrolide antiinfective agents” (Kosan Biosciences Incorporated, priority 2004, dated 2007)

Columns and labels:
[1] = tested on: S. pneumoniae; test: Biological activity against bacterial strains: S. pneumoniae; type: cell-based, Streptococcus pneumoniae; parameters: Biological Activity, S. pneumoniae ATCC6301 / Biological Activity, S. pneumoniae ATCC700671 / Biological Activity, S. pneumoniae ATCC700676* / Biological Activity, S. pneumoniae ATCC700677* / Biological Activity, S. pneumoniae ATCC700905* / Biological Activity, S. pneumoniae ATCC700906* / Biological Activity, S. pneumoniae ATCC49619: unit not given here; conditions: for Biological Activity, S. pneumoniae ATCC6301: strain ATCC6301; for Biological Activity, S. pneumoniae ATCC49619: strain ATCC49619; for Biological Activity, S. pneumoniae ATCC700671: strain ATCC700671; for Biological Activity, S. pneumoniae ATCC700676*: strain ATCC700676, macrolide resistant strain; for Biological Activity, S. pneumoniae ATCC700677*: strain ATCC700677, macrolide resistant strain; for Biological Activity, S. pneumoniae ATCC700905*: strain ATCC700905, macrolide resistant strain; for Biological Activity, S. pneumoniae ATCC700906*: strain ATCC700906, macrolide resistant strain
[2] = tested on: S. aureus; test: Biological activity against bacterial strains: S. aureus; type: cell-based, Staphylococcus aureus; parameters: unit not given here; conditions: for Biological Activity, S. aureus ATCC6538p: strain ATCC6538p; for Biological Activity, S. aureus ATCC14154*: strain ATCC14154, macrolide resistant strain; for Biological Activity, S. aureus ATCC29213: strain ATCC29213; for Biological Activity, S. aureus ATCC33591*: strain ATCC33591, macrolide resistant strain; for Biological Activity, S. aureus ATCCBAA-39*: strain ATCCBAA-39, macrolide resistant strain; for Biological Activity, S. aureus ATCCBAA-44*: strain ATCCBAA-44, macrolide resistant strain
[3] = tested on: S. epidermidis; test: Biological activity against bacterial strains: S. epidermidis; type: cell-based, Staphylococcus epidermidis; conditions: strain ATCC12228
[4] = tested on: E. faecalis; test: Biological activity against bacterial strains: E. faecalis; type: cell-based, Enterococcus faecalis; conditions: strain ATCC51575
[5] = tested on: a series of bacterial strains; test: Biological activity against a series of bacterial strains (overall statements); type: cell-based
From the text: Results for S. pneumoniae, S. aureus, S. epidermidis, and E. faecalis are provided in Table B. Data on activity against H. influenzae for selected compounds are presented in Table C.

[6] = tested on: Haemophilus Influenzae; test: H. influenzae Activity; type: cell-based

SMILES | Biological Activity, S. pneumoniae ATCC6301 [1] | Biological Activity, S. pneumoniae ATCC49619 [1] | Biological Activity, S. pneumoniae ATCC700671 [1] | Biological Activity, S. pneumoniae ATCC700676* [1] | Biological Activity, S. pneumoniae ATCC700677* [1] | Biological Activity, S. pneumoniae ATCC700905* [1] | Biological Activity, S. pneumoniae ATCC700906* [1] | Biological Activity, S. aureus ATCC6538p [2] | Biological Activity, S. aureus ATCC14154* [2] | Biological Activity, S. aureus ATCC29213 [2] | Biological Activity, S. aureus ATCC33591* [2] | Biological Activity, S. aureus ATCCBAA-39* [2] | Biological Activity, S. aureus ATCCBAA-44* [2] | Biological Activity, S. epidermidis ATCC12228 [3] | Biological Activity, E. faecalis ATCC51575 [4] | activity of Z-configuration oxime versus its E counterpart (in words) [5] | antibiotic / antibacterial activity (in words) [5] | H. influenzae Activity, strain ATCC9006 ([6]; strain ATCC9006) | H. influenzae Activity, strain ATCC49766 ([6]; strain ATCC49766)
CCC1OC(=O)CC(O)C(C)C(OC2OC(C)C(O)C(N(C)C)C2O)C(CC=O)CC(C)C(=NOCC#Cc2cnc3ccccc3c2)C=CC(C)=CC1CO (single isomer, unassigned) [Compound E] | 0.025 | 0.025 | 0.025 | 0.025 | >12.5 | 0.049 | >12.5 | 0.098 | 0.39 | 0.39 | >12.5 | >12.5 | >12.5 | 0.098 | >12.5 | more active than compound D |  |  | 
CCC1OC(=O)CC(O)C(C)C(OC2OC(C)C(O)C(N(C)C)C2O)C(CCN2CC(C)CC(C)C2)CC(C)C(=O)C=CC(C)=CC1CO (centres unmarked) [Compound 8, 20-Deoxy(3,5-dimethyl-1-piperidine)OMT, reference compound] | 0.39 | 0.78 | 0.78 | 1.56 | >12.5 | 1.56 | >12.5 | 0.39 | 1.56 | 1.56 | >12.5 | >12.5 | >12.5 | 0.78 | >12.5 |  | no antibiotic activity |  | 
CCC1OC(=O)CC(O)C(C)C(OC2OC(C)C(O)C(N(C)C)C2O)C(CCN2CC(C)CC(C)C2)CC(C)C(=NO)C=CC(C)=CC1CO (centres unmarked) [Compound 9, 20-deoxy(3,5-dimethyl-1-piperidine)OMT 9-oxime, reference compound] |  |  |  |  |  |  |  |  |  |  |  |  |  |  |  |  | no antibiotic activity |  | 
CCC1OC(=O)CC(O)C(C)C(OC2OC(C)C(O)C(N(C)C)C2O)C(CC=O)CC(C)C(=NOCCCOc2ccc3ncccc3c2)C=CC(C)=CC1COC(=O)NCc1ccccc1 (centres unmarked) [Compound DD] | 0.049 | 0.049 | 0.049 | 0.049 | 0.2 | >12.5 | 0.049 | 0.78 | 1.56 | 0.78 | 12.5 | >12.5 | >12.5 | 0.78 | >12.5 |  |  | 12.5 | 12.5
